What was measured:
Settings in all cases: 72 h
Caco-2 [1] = experiment: cell viability relative to DMSO; higher = less toxic
Calu-3 [2] = experiment: as above
HepG2 [3] = experiment: as above
U2OS [4] = experiment: as above
Vero E6 [5] = experiment: as above
Caco-2 [6] = experiment: relative viability EC50 (midpoint between 100% and the lowest measured viability); higher = less toxic
Calu-3 [7] = experiment: as above
HepG2 [8] = experiment: as above
U2OS [9] = experiment: as above
Vero E6 [10] = experiment: as above
Caco-2 [11] = experiment: drug sensitivity score (DSS) for viability; higher = more toxic; extreme values may be limits of the assay
Calu-3 [12] = experiment: as above
HepG2 [13] = experiment: as above
U2OS [14] = experiment: as above
Vero E6 [15] = experiment: as above

SMILES	cell viability (Caco-2 [1]; 1 nM) [%]	cell viability (Caco-2 [1]; 10 nM) [%]	cell viability (Caco-2 [1]; 100 nM) [%]	cell viability (Caco-2 [1]; 1000 nM) [%]	cell viability (Caco-2 [1]; 10000 nM) [%]	cell viability (Calu-3 [2]; 1 nM) [%]	cell viability (Calu-3 [2]; 10 nM) [%]	cell viability (Calu-3 [2]; 100 nM) [%]	cell viability (Calu-3 [2]; 1000 nM) [%]	cell viability (Calu-3 [2]; 10000 nM) [%]	cell viability (HepG2 [3]; 1 nM) [%]	cell viability (HepG2 [3]; 10 nM) [%]	cell viability (HepG2 [3]; 100 nM) [%]	cell viability (HepG2 [3]; 1000 nM) [%]	cell viability (HepG2 [3]; 10000 nM) [%]	cell viability (U2OS [4]; 1 nM) [%]	cell viability (U2OS [4]; 10 nM) [%]	cell viability (U2OS [4]; 100 nM) [%]	cell viability (U2OS [4]; 1000 nM) [%]	cell viability (U2OS [4]; 10000 nM) [%]	cell viability (Vero E6 [5]; 1 nM) [%]	cell viability (Vero E6 [5]; 10 nM) [%]	cell viability (Vero E6 [5]; 100 nM) [%]	cell viability (Vero E6 [5]; 1000 nM) [%]	cell viability (Vero E6 [5]; 10000 nM) [%]	relative viability EC50 (Caco-2 [6]) [µM]	relative viability EC50 (Calu-3 [7]) [µM]	relative viability EC50 (HepG2 [8]) [µM]	relative viability EC50 (U2OS [9]) [µM]	relative viability EC50 (Vero E6 [10]) [µM]	drug sensitivity score (Caco-2 [11])	drug sensitivity score (Calu-3 [12])	drug sensitivity score (HepG2 [13])	drug sensitivity score (U2OS [14])	drug sensitivity score (Vero E6 [15])
C[C@]12CC[C@H](O)C[C@H]1CC[C@@H]1[C@@H]2CC[C@]2(C)[C@@H](C3=CC(=O)OC3)CC[C@]12O [digitoxigenin]	78.9	84.9	84.1	36	42.3	97.7	93.4	104	50.5	17.7	118	117	94.5	39.2	12.2	105	105	101	16.4	6.9	108	97.3	13.2	0.7	0.6	0.18	0.849	0.605	0.435	0.0448	13.5	10.5	12.4	15.2	28.4
C[C@]12CC[C@H](O)C[C@H]1CC[C@@H]1[C@@H]2C[C@@H](O)[C@]2(C)[C@@H](C3=CC(=O)OC3)CC[C@]12O [digoxigenin]	92.9	106	114	80.5	44.6	99.8	111	101	91.6	29	100	109	89.1	39.5	12.6	96.9	105	92.3	58.4	5.8	107	108	77.4	1.3	1.1	1.28	2.19	0.52	1.14	0.163	5.7	5.3	12.8	10	21.4
OCCN(CCO)c1nc(N2CCCCC2)c2nc(N(CCO)CCO)nc(N3CCCCC3)c2n1 [dipyridamole]	114	98.9	102	96.2	87.1	99.1	103	112	96.4	104	94.2	101	96.6	100	96.7	103	99.2	101	102	99.8	104	90.1	108	95	95.3	> 10	> 10	> 10	> 10	> 10	0.3	0	0	0	0
CCCCCCCCCCCCCCCCCCCCCCO [docosanol]	95.8	92.2	99.5	116	82.1	87.6	97.6	96.4	102	96.5	104	100	104	93.2	85.1	92.3	96.2	94.6	98.6	105	108	98.4	98.2	88.4	104	> 10	> 10	> 10	> 10	> 10	0.2	0	0.7	0	0
C=C1/C(=C\C=C2/CCC[C@]3(C)[C@@H]([C@H](C)/C=C/[C@H](C)C(C)C)CC[C@@H]23)C[C@@H](O)C[C@@H]1O [doxercalciferol]	104	103	96.3	98.2	97.2	95.3	102	99.9	95.8	111	101	94.8	99.8	96.4	99.9	92.2	102	94.9	96.7	100	97.7	101	97.1	95.9	106	> 10	> 10	> 10	> 10	> 10	0	0	0	0	0
CCCCCCCC(=O)N[C@H](CN1CCCC1)[C@H](O)c1ccc2c(c1)OCCO2 [eliglustat]	103	96.7	95.1	99.8	99.8	98.7	98.3	96	99.5	93.2	100	109	95.8	108	92	101	95.4	97.8	94.6	95.3	97.3	91.6	84.3	84.2	85.5	> 10	> 10	> 10	> 10	> 10	0	0	0	0	3.1
CCOCCn1c(N2CCCN(C)CC2)nc2ccccc21 [emedastine]	97.3	102	102	95.4	91.2	94.2	101	99.3	112	106	89	98.4	92.7	101	107	97.4	96.3	93	98.4	96	99.1	105	100	98.4	99.8	> 10	> 10	> 10	> 10	> 10	0	0	0	0	0
OC[C@H]1O[C@@H](c2ccc(Cl)c(Cc3ccc(O[C@H]4CCOC4)cc3)c2)[C@H](O)[C@@H](O)[C@@H]1O [empagliflozin]	95	97.3	102	94.7	104	87.9	110	114	98.7	101	99.4	109	91.9	109	117	98.6	92.3	103	96.7	96.4	90	103	95	94.9	106	> 10	> 10	> 10	> 10	> 10	0	0	0	0	0
CSc1ccc(C(=O)c2[nH]c(=O)[nH]c2C)cc1 [enoximone]	92.8	87.2	100	111	87	106	101	94.2	96.7	101	96.6	95.8	103	82.5	100	99.2	97.9	101	108	105	99.6	99.6	86	90.6	94.9	> 10	> 10	> 10	> 10	> 10	0	0	0	0	0
CCOc1ccc(Cc2cc([C@]34OC[C@](CO)(O3)[C@@H](O)[C@H](O)[C@H]4O)ccc2Cl)cc1 [ertugliflozin]	96.8	96.9	90.5	89.9	103	106	99.1	104	98.7	96.4	108	109	107	98.6	98.6	101	102	102	98.1	101	102	104	95.1	101	102	> 10	> 10	> 10	> 10	> 10	0	0	0	0	0
CCc1cc(Cl)c(OC)c(C(=O)NC[C@@H]2CCCN2CC)c1O [eticlopride]	102	101	92.5	103	87	105	102	103	99.9	98.5	115	108	121	106	91.4	99.1	106	96.3	103	94.8	107	102	106	102	94.7	> 10	> 10	> 10	> 10	> 10	0.1	0	0	0	0
Cc1cc(C)c2c(c1)[C@@H](N(Cc1cc(C(F)(F)F)cc(C(F)(F)F)c1)c1nnn(C)n1)CCCN2C[C@H]1CC[C@H](C(=O)O)CC1 [evacetrapib]	90.6	94.9	108	99.8	97.3	97	88.9	100	96.9	89.9	97	100	95.6	99.5	104	98.1	100	97.5	103	91.9	96.1	97.3	95.7	93.3	102	> 10	> 10	> 10	> 10	> 10	0	0	0	0	0
CCOC(=O)C1=C(C)NC(C)=C(C(=O)OC)C1c1cccc(Cl)c1Cl (stereo not given) [felodipine]	101	102	104	91.8	99	89.8	101	111	98.2	102	105	107	99.5	99.2	96.9	106	96.7	99.7	97.4	100	99.2	103	101	103	94.7	> 10	> 10	> 10	> 10	> 10	0	0	0	0	0

Reference: the supplement of paper PMC13380429
